Measured values from patent US20080031868A1, “HUMAN LYSOZYME MEDICINE, ITS MANUFACTURING METHOD AND APPLICATION THEREOF” (priority 2005, published 2008).

Columns and labels:
[1] = system: HELA cell; test: Toxicity to HELA cell (CPE, Reed-Muench)
Description: 1. Determination of the Toxicity of Recombinant Human Lysozyme to HELA Cell:
HELA cells were seeded on 96-well culture plates at the concentration of 400,000/mi and grown at 37° C. in a 5% CO2 incubator for 2 hours. 100 μl recombinant human lysozyme which were double-diluted from 6000 ug/ml to 11.7 ug/ml and positive reference medicine which were double-diluted from 6000 ug/ml to 11.7 ug/ml were respectively added to 3 wells per concentration. At the same time the reference cells were cultivated at 37° C. in a 5% CO2 incubator for 6 days. Inverted microscope was used everyday to observe the cytopathic effect (CPE). The cytopathic effect under 25% was recorded as “+”, the cytopathic effect under 26%˜50% was recorded as “++”, the cytopathic effect under 51%˜75% was recorded as “+++” and the cytopathic effect under 76%˜100% was recorded as “++++”. Drug median toxic dose (TD50) and minimum toxic dose (TD0) were calculated by using Reed-Muench method.

[2] = system: No. 04 Coronavirus; test: organism not typed; type: cell-based
Description: HELA cells were seeded on 96-well cultivation plates at the concentration of 400,000/ml and grown to monolayer at 37° C. in 5% CO2 incubator for 24 hours. […] Then 100 TCID50coronavirus liquid were added to HELA cells. At the same time reference cell and reference virous were cultivated at 37° C. in 5% CO2 incubator for 5 to 7 days. At the same time normal cell reference and virous reference were cultivated at 37° C. in 5% CO2 incubator for 5 to 7 days. Inverted microscope was used everyday to observe the cytopathic effect (CPE) of virus. The determination were ended according to the appearance of “+++-++++”. […] The determination was repeated three times.

[3] = system: drug-resistant suppurative streptococcus; test: Amygdalitis model of mice, upper respiratory tract infection; type: in vivo
Text: C. The preparation of the amygdalitis model of mice infected by the drug-resistant suppurative streptococcus with the upper respiratory tract:
(§1) 10 healthy Kunming mice (18˜22 g), male and female, infected by the drug-resistant suppurative streptococcus with the upper respiratory tract in way of spraying which induce the amygdalitis of mice, then promptly suck aerosol (powder or liquid) according to 30000 u/ml/20 g and give medicines three times a day. Observe for one week after infecting and record the efficient rate of mice. […]

[4] = system: bronchus pneumonia of mice by sucking the hydrochloric acid; test: Bronchus pneumonia (bronchus lung injury) of mice by sucking atomized hydrochloric acid; type: in vivo, Kunming mice
Description: D. The effect of human lysozyme to bronchus pneumonia of mice by sucking the hydrochloric acid:
50 mice were equally divided to 5 groups at random, selecting randomly 4 groups among them to make the model of the mice atomized hydrochloric acid.
Each batch of 10 mice was put in Glass desiccator which equipped the self-made atomizer contained 1 N HCI solution. The principle of electronic supra-frequency shaker was used to atomizate hydrochloric acid, then it was inspired for 1 hour by mice to make model of inspiring bronchus lung injury. Its mechanism is that inspiring acidoid can cause adhesion of leucocyte and increasing expression of ICAM-1 and permeability of endotheliocyte and cellula epithelialis to protein, thereby to cause pneumochysis. Otherwise inspiring acidoid can cause the release of phlegmonosis cytokine. Assembling in lung and reciprocal activation of these cytokine and neutrophilic leukocyte can induce cell adhesion and tissue damage.
40 mice models were gathered and then randomly divided to 4 groups. 3 groups were treated with drug, 1 group were treated as model group.
The concentration of recombinant human lysozyme medicine was set at 15000 u/ml in clinical atomization therapy. The dose was 15000 u per time once daily, I.e 0.5 mg per time. The dose was 1.3×10^−3mg a mice (calculated by weight of 20 g). Human ventilatory capacity (9000 ml/min) corresponded with 375 times of mice ventilatory capacity (24 ml/min). Human single dose (0.5 mg/70 kg) corresponded with 384 times of mice dose (1.3×10^−3 mg/20 g). Two folds between ventilatory capacity and single dose were closed, so clinical human dose was used for atomization therapy of mice. Availability of clinical inspiring lysozyme atomized was higher than breathing amount of mice by itself in atomizer. To ensure the breathing amount of lysozyme, the breathing time were extended for 1 hour. Based on 0.5 mg/ml as low dose, the concentration of 1.0 mg/ml and 2.0 mg/ml were set respectively as middle and high dose. The mice were put into the glass desiccator and then treated with human lysozyme atomized in the compression sprayer (PARL.BOY) once daily, and continued 5-10 days (shown in FIG. 2).
As atomization was treated to the 5th and 10th day, half animals (5) of every group were dissected, then the lung tissues were weighed and the lung coefficients were calculated according to the weight. Pathological changes of appearance and the lung tissue were observed respectively by naked eye and pathological section.

[5] = system: No. 04 Coronavirus; test: Inhibition on No. 04 Coronavirus in HELA cells (CPE method); type: cell-based
Description: HELA cells were seeded on 96-well cultivation plates at the concentration of 400,000/ml and grown to monolayer at 37° C. in 5% CO2 incubator for 24 hours. After removal of cultivation liquid, coronavirus liquid were added to HELA cells and absorbed at 37° C. in 5% CO2 incubator for 2 hours. […] At the same time reference cells and reference virous were cultivated at 37° C. in 5% CO2 incubator for 5 to 7 days. Inverted microscope was used everyday to observe the cytopathic effect (CPE) of virus. The determination were ended according to the appearance of “+++-++++”. […] The determination was repeated three times.

[6] = system: drug-resistant suppurative streptococcus; test: Acute or chronic suppurative faucitis model of mice, upper respiratory tract infection; type: in vivo
Text: B. Preparation of the acute or chronic suppurative faucitis model of little mice infected by the drug-resistant suppurative streptococcus with the upper respiratory tract:
as §1, with “female, were” for “female,”, “induced” for “induce”, “acute or chronic suppurative faucitis” for “amygdalitis”, “mice, and” for “mice,”, “treated with” for “suck”, “at the dose of” for “according to”

[7] = prevention: drug absorbed 2.5 hours before 100 TCID50 virus, mean of thrice test
[8] = 10 mice, aerosol 30000 u/ml/20 g three times a day, one week
[9] = atomized solution and inhalation
[10] = high dosage 2.0 mg/ml, atomization treated for 5 days
[11] = high dosage 2.0 mg/ml, atomization treated for 10 days
[12] = low dosage 0.5 mg/ml, atomization treated for 5 days
[13] = low dosage 0.5 mg/ml, atomization treated for 10 days
[14] = median dosage 1.0 mg/ml, atomization treated for 5 days
[15] = median dosage 1.0 mg/ml, atomization treated for 10 days
[16] = inhibition: drug added after virus absorbed 2 hours, mean of thrice test

Substance: Human lysozyme: gene recombinant Human Lysozyme (HLZ), active unit 30000 u/mg, batch number 020110; given atomized / as aerosol
- median toxic dose (TD50) [1]: 1500 ± 0 µg/mL
- minimum toxic dose (TD0) [1]: 750 ± 0 µg/mL
- median inhibitory concentration (IC50) [2, 7]: 5.9 ± 0 µg/mL
- minimum inhibitory concentration (MIC) [2, 7]: 11.7 ± 0 µg/mL
- therapeutic index (TI) ([2]; prevention: drug before virus): 64
- Efficient % [3, 8]: 100%
- Healing [3, 8]: 8
- Invalid [3, 8]: 0
- Valid [3, 8]: 2
- curative effect to the amygdalitis of mice [3, 9]: obvious curative effect
- effect on mice model of bronchus lung injury caused by inspiring hydrochloric acid ([4]; atomization): validated effective
- Lung coefficient (g/g) × 10^−3 [4, 10]: 9.1 ± 1.00 (g/g) × 10^−3
- Weight [4, 10]: 29.4 ± 3.3 g
- Lung coefficient (g/g) × 10^−3 [4, 11]: 8.32 ± 1.84 (g/g) × 10^−3
- Weight [4, 11]: 31.2 ± 2.0 g
- pathohistology observation of bronchiole and bronchia in lung ([4]; high dosage group, 5 days): little infiltration of a few monocytes and lymphocytes in bronchus between lobules, and a few phlegmasia cells and secretion in part bronchioles
- pathological section: animals changed pathologically ([4]; high dosage group, 5 days): 2/5
- pathological section: animals normal ([4]; high dosage group, 5 days): 3/5
- Lung coefficient (g/g) × 10^−3 [4, 12]: 7.30 ± 0.43 (g/g) × 10^−3
- Weight [4, 12]: 29.6 ± 1.6 g
- Lung coefficient (g/g) × 10^−3 [4, 13]: 7.10 ± 0.61 (g/g) × 10^−3
- Weight [4, 13]: 30.7 ± 3.0 g
- pathohistology observation of bronchiole and bronchia in lung ([4]; low dosage group, 5 days): two spalling of epithelium mucosae in bronchioles and bronchia of one lung tissue, a little erythrocytes in bronchiole lumina of another lung tissue, and normality in the others
- pathological section: animals kept normally ([4]; low dosage group, 5 days): 4/5
- Lung coefficient (g/g) × 10^−3 [4, 14]: 7.8 ± 0.65 (g/g) × 10^−3
- Weight [4, 14]: 29.2 ± 2.4 g
- Lung coefficient (g/g) × 10^−3 [4, 15]: 8.30 ± 1.40 (g/g) × 10^−3
- Weight [4, 15]: 30.6 ± 2.2 g
- pathohistology observation of bronchiole and bronchia in lung ([4]; median dosage group, 5 days): little infiltration of a few monocytes and lymphocytes around part bronchioles, intactness of upper strata wall of most bronchioles tunica mucosa, spalling of a few epithelium mucosae
- pathological section: animals kept normally ([4]; median dosage group, 5 days): 5/5
- therapeutic index (TI) ([5]; inhibition: drug added after virus): 16
- median inhibitory concentration (IC50) [5, 16]: 23.4 ± 0 µg/mL
- minimum inhibitory concentration (MIC) [5, 16]: 46.8 ± 0 µg/mL
- Efficient % [6, 8]: 100%
- Healing [6, 8]: 8
- Invalid [6, 8]: 0
- Valid [6, 8]: 2
- curative effect to acute or chronic suppurative faucitis of mice [6, 9]: obvious curative effect
